Assay results from patent US20090304606A1, “Method for removing debris from tooth and bone surface using irrigation solution” (priority 2006, published 2009).

Assay: Effect of surfactants on stability of citric acid solutions, accelerated aging on a hot plate
Format: physicochemical
Experimental: In the following example, the stability of solutions containing an acid component and different surfactants (surfactants) was evaluated. Solutions of 4.4% citric acid and 0.5% surfactant were prepared. The solutions were placed in clear glass bottles, and the bottles were placed on a hot plate to approximate accelerated aging conditions. The temperature of the liquids in the bottle was about 60° C., although some variations occurred depending upon the position of the bottle.

Observations (stability of solution)	Sequence
Slightly cloudy after 64 days.	POLOXAMER 237
Yellow precipitate formed at bottom	POLOXAMER 407
